Assay results as given in patent US20230392118A1, “GENERATION OF CD4+ EFFECTOR AND REGULATORY T CELLS FROM HUMAN PLURIPOTENT STEM CELLS” (Sangamo Therapeutics, Inc., priority 2020, published 2023).

System: dox-inducible GFP expression cassette
Test: Dox-inducible GFP expression cassette integrated into AAVS1 locus of iPSCs
Format: cell-based, human
Experimental: This Example describes an experiment in which a green fluorescent protein expression cassette was integrated into the AAVS1 gene locus as illustrated in FIG. 21. AAVS1 ZFN mRNA and donor plasmid were delivered into iPSCs via electroporation on Day −7. One week later (Day 0), puromycin was added (0.3 μg/mL) to the tissue culture to begin positive selection for cells having undergone targeted integration. Doxycycline was added at Day 15 and maintained in culture at 3 different doses (0.3, 1, and 3 μg/mL) to induce expression of the dox-inducible GFP expression cassette. […] Cells were maintained in the presence of doxycycline for 13 days. During this period, the 3 μg/mL dose of doxycycline yielded the highest level of inducible GFP transgene expression (94%; FIG. 22). This high level of expression was sustained while doxycycline was present in culture. Cells were maintained in puromycin as well as doxycycline from Day 15-28 and were further positively selected (increase from ˜50% to ˜70% of alleles with targeted integration).

| Compound | Inducible GFP transgene expression (3 μg/mL doxycycline, iPSCs, maintained 13 days) [%] | Alleles with targeted integration after positive selection (puromycin as well as doxycycline, Day 15-28, increase from ~50%) [%] |
| --- | --- | --- |
| C[C@H]1c2cccc(O)c2C(=O)C2=C(O)[C@]3(O)C(=O)C(C(N)=O)=C(O)[C@@H](N(C)C)[C@@H]3[C@@H](O)[C@@H]21 [doxycycline] | 94 |  |
| COc1ccc(C[C@H](N)C(=O)N[C@H]2[C@@H](O)[C@H](n3cnc4c(N(C)C)ncnc43)O[C@@H]2CO)cc1 [puromycin] |  | ~70 |
